Test results from US4192867A, “2-Deoxyfortimicin A, 4-N-alkyl and 4-N-acyl-2-deoxyfortimicin B derivatives” (Abbott Laboratories, priority 1977, dated 1980).
Where a name gives a salt, the structure may show the parent alone. Read-outs that look alike come from different tables or passages of the source.

Legend:
[1] = tested on: Proteus mirabilis (Fin 9); test: Acute mouse protection test; format: in vivo, Proteus mirabilis; female, swiss albino mice; conditions: ip, 168 h, read-out: Effective Dose50 (ED50)
Description: (§1) The acute mouse protection test is conducted on 10 mice with each of 5 levels of dug. Mouse mortality is used to calculate a ED50 value, i.e., dose of drug required to protect 50% of the test animals.
(§2) The acute mouse protection test is conducted on female, swiss albino mice, 18-20 grams in weight. The mice are injected intraperitoneally with an 18 hour culture of the indicated test organism diluted sufficiently to provide the desired LD50 value. To check potency of the infection a titration of the indicated test organism is carried out in control animals. The treatment group of animals is dosed with the test fortimicin at one and five hours post-infection and observed for seven days. The ED50 values are calculated using the mortality data collected.

[2] = tested on: Providencia 1577; test: In vitro antibiotic activity, two-fold dilution test (Mueller-Hinton agar); format: cell-based; conditions: for MIC: read-out: Minimum inhibitory concentration (MIC)
Description: (§3) The in vitro antibiotic activities are determined by a two-fold dilution test using Mueller-Hinton agar, 10 ml per Petri plate. The inoculum of approximately 1×10^5 of the indicated test organism is delivered by the Steer's replicator. The test is incubated at 37° C. for 24 hours. Fortimicin A tetrahydrochloride and fortimicin A disulfate are used as the control antibiotics. The minimum inhibitory concentrations (MIC), listed in Table I, are expressed in mcg/ml.

[3] = tested on: Proteus vulgaris JJ; test: as above; format: cell-based; conditions: for MIC: read-out: Minimum inhibitory concentration (MIC)
Description: as §3

[4] = tested on: E. coli BL 3676 (Res); test: as above; format: cell-based; conditions: for MIC: Escherichia coli, read-out: Minimum inhibitory concentration (MIC)
Description: as §3

[5] = tested on: Staph. aureus Smith; test: as above; format: cell-based; conditions: for MIC: Staphylococcus aureus, read-out: Minimum inhibitory concentration (MIC)
Description: as §3

[6] = tested on: Enterobacter aerogenes 13048; test: as above; format: cell-based; conditions: for MIC: read-out: Minimum inhibitory concentration (MIC)
Description: as §3

[7] = tested on: E. coli Juhl; test: as above; format: cell-based; conditions: for MIC: Escherichia coli, read-out: Minimum inhibitory concentration (MIC)
Description: as §3

[8] = tested on: Serratis marcescens 4003; test: as above; format: cell-based
Description: as §3

[9] = tested on: Kleb. pneumoniae KY 4262; test: as above; format: cell-based; conditions: for MIC: Klebsiella pneumoniae
Description: as §3

[10] = tested on: Shigella sonnei 9290; test: as above; format: cell-based; conditions: 37° C.; for Minimum inhibitory concentration (MIC): 24 hours
Description: as §3

[11] = tested on: Proteus rettigeri U6333; test: as above; format: cell-based
Description: as §3

[12] = tested on: Pseudo. aeruginosa BMH #10; test: as above; format: cell-based; conditions: for MIC: Pseudomonas aeruginosa, read-out: Minimum inhibitory concentration (MIC)
Description: as §3

[13] = tested on: Pseudo. aeruginosa KY 8512; test: as above; format: cell-based; conditions: for MIC: Pseudomonas aeruginosa
Description: as §3

[14] = tested on: E. coli 76-2; test: as above; format: cell-based
Description: as §3

[15] = tested on: Strep. faecalis 10541; test: as above; format: cell-based; conditions: for MIC: read-out: Minimum inhibitory concentration (MIC)
Description: as §3

[16] = tested on: Psuedo. aeruginosa 209; test: as above; format: cell-based; conditions: for MIC: read-out: Minimum inhibitory concentration (MIC)
Description: as §3

[17] = tested on: Sal. typhimurium Ed. #9; test: as above; format: cell-based; conditions: for MIC: Salmonella enterica, read-out: Minimum inhibitory concentration (MIC)
Description: as §3

[18] = tested on: Proteus mirabilis Fin. #9; test: as above; format: cell-based; conditions: for MIC: read-out: Minimum inhibitory concentration (MIC)
Description: as §3

[19] = tested on: Kleb. pneumoniae 10031; test: as above; format: cell-based
Description: as §3

[20] = tested on: Psuedo. aeruginosa 27853; test: as above; format: cell-based
Description: as §3

[21] = tested on: Pseudo. aeruginosa KY 8516; test: as above; format: cell-based; conditions: for MIC: Pseudomonas aeruginosa
Description: as §3

[22] = tested on: Escherichia coli (Juhl); test: Acute mouse protection test; format: in vivo, Escherichia coli; female, swiss albino mice; conditions: ip, 168 h, read-out: Effective Dose50 (ED50)
Description: as §1, §2

[23] = tested on: Klebsiella pneumoniae (4508); test: Acute mouse protection test; format: in vivo, Klebsiella pneumoniae; female, swiss albino mice; conditions: ip, 168 h, read-out: Effective Dose50 (ED50)
Description: as §1, §2

[24] = Providencia 1577, Mueller-Hinton agar, 37° C., 24 hours
[25] = Proteus vulgaris JJ, Mueller-Hinton agar, 37° C., 24 hours
[26] = E. coli BL 3676 (Res), Mueller-Hinton agar, 37° C., 24 hours
[27] = Staph. aureus Smith, Mueller-Hinton agar, 37° C., 24 hours
[28] = E. coli Juhl, Mueller-Hinton agar, 37° C., 24 hours
[29] = Pseudo. aeruginosa BMH #10, Mueller-Hinton agar, 37° C., 24 hours
[30] = Psuedo. aeruginosa 209, Mueller-Hinton agar, 37° C., 24 hours
[31] = Sal. typhimurium Ed. #9, Mueller-Hinton agar, 37° C., 24 hours
[32] = Proteus mirabilis Fin. #9, Mueller-Hinton agar, 37° C., 24 hours

For COC1CC(N)C(OC2OC(C(C)N)CCC2N)C(O)C1N(C)C(=O)CN (stereo not drawn) [2-deoxyfortimicin A tetrahydrochloride, 2-Deoxyfortimicin A Tetrahydrochloride], which ED50 ([1]; Proteus mirabilis (Fin 9) infected intraperitoneally, dosed one and five hours post-infection, observed seven days) is on record?
Its ED50 is 4.7 mg/kg.

What about the MIC [2, 24] of the same compound?
Its MIC is 3.1 µg/mL.

And the MIC [3, 25]?
The MIC was 3.1 µg/mL.

What about the MIC [4, 26] of the same compound?
Its MIC is 25 µg/mL.

And the MIC [5, 27]?
The MIC was 0.78 µg/mL.

And the MIC ([6]; Klebsiella aerogenes, Enterobacter aerogenes 13048, Mueller-Hinton agar, 37° C., 24 hours)?
Its MIC is 3.1 µg/mL.

What about the MIC [7, 28] of the same compound?
The MIC was 6.2 µg/mL.

And the MIC ([8]; Serratis marcescens 4003, 37° C., 24 hours, read-out: Minimum inhibitory concentration (MIC))?
Its MIC is 3.1 µg/mL.

And the MIC ([9]; KY4262, Kleb. pneumoniae KY 4262, 37° C., 24 hours, read-out: Minimum inhibitory concentration (MIC))?
Its MIC is 6.2 µg/mL.

What about the MIC ([10]; Shigella sonnei, 9290, 24 h, read-out: Minimum inhibitory concentration (MIC)) of the same compound?
Its MIC is 6.2 µg/mL.

What about the MIC ([11]; Proteus rettigeri U6333, 37° C., 24 hours, read-out: Minimum inhibitory concentration (MIC)) of the same compound?
The MIC was 25 µg/mL.

What about the MIC [12, 29] of the same compound?
The MIC was 0.78 µg/mL.

What about the MIC ([13]; KY8512, Pseudo. aeruginosa KY 8512, 37° C., 24 hours, read-out: Minimum inhibitory concentration (MIC)) of the same compound?
Its MIC is 12.5 µg/mL.

What about the MIC ([14]; Escherichia coli, 762, E. coli 76-2, 37° C., 24 hours, read-out: Minimum inhibitory concentration (MIC)) of the same compound?
The MIC was 3.1 µg/mL.

What about the MIC ([15]; Enterococcus faecalis, Strep. faecalis 10541, Mueller-Hinton agar, 37° C., 24 hours) of the same compound?
Its MIC is 50 µg/mL.

What about the MIC [16, 30] of the same compound?
The MIC was > 100 µg/mL.

And the MIC [17, 31]?
Its MIC is 1.56 µg/mL.

What about the MIC [18, 32] of the same compound?
The MIC was 6.2 µg/mL.

What about the MIC ([19]; Klebsiella pneumoniae, Kleb. pneumoniae 10031, 37° C., 24 hours, read-out: Minimum inhibitory concentration (MIC)) of the same compound?
Its MIC is 1.56 µg/mL.

What about the MIC ([20]; Psuedo. aeruginosa 27853, 37° C., 24 hours, read-out: Minimum inhibitory concentration (MIC)) of the same compound?
The MIC was 12.5 µg/mL.

What about the MIC ([21]; KY8516, Pseudo. aeruginosa KY 8516, 37° C., 24 hours, read-out: Minimum inhibitory concentration (MIC)) of the same compound?
Its MIC is 50 µg/mL.

What about the ED50 ([22]; Escherichia coli (Juhl) infected intraperitoneally, dosed one and five hours post-infection, observed seven days) of the same compound?
The ED50 was 4.7 mg/kg.

What about the ED50 ([23]; Klebsiella pneumoniae (4508) infected intraperitoneally, dosed one and five hours post-infection, observed seven days) of the same compound?
The ED50 was 1.5 mg/kg.

Which results are given for COC1C(O)C(N)C(OC2OC(C(C)N)CCC2N)C(O)C1N(C)C(=O)CN (stereo not drawn) [Fortimicin A disulfate, fortimicin A disulfate]?
ED50 ([1]; Proteus mirabilis): 7.5 mg/kg; MIC ([2]; Providencia, 1577, 24 h): 3.1 µg/mL; MIC ([3]; Proteus vulgaris, 24 h): 6.2 µg/mL; MIC ([4]; 24 h): 25 µg/mL; MIC ([5]; 24 h): 0.78 µg/mL; MIC ([6]; Klebsiella aerogenes, 13048, 24 h): 3.1 µg/mL; MIC ([7]; 24 h): 6.2 µg/mL; MIC ([8]; 24 h, read-out: Minimum inhibitory concentration (MIC), Serratis marcescens 4003, 37° C.): 1.56 µg/mL; MIC ([9]; KY4262, 24 h, read-out: Minimum inhibitory concentration (MIC), Kleb. pneumoniae KY 4262, 37° C.): 6.2 µg/mL; Minimum inhibitory concentration (MIC) [10]: 6.2 µg/mL; MIC ([11]; 24 h, read-out: Minimum inhibitory concentration (MIC), Proteus rettigeri U6333, 37° C.): 12.5 µg/mL; MIC ([12]; 24 h): 0.78 µg/mL; MIC ([13]; KY8512, 24 h, read-out: Minimum inhibitory concentration (MIC), Pseudo. aeruginosa KY 8512, 37° C.): 12.5 µg/mL; MIC ([14]; Escherichia coli, 762, 24 h, read-out: Minimum inhibitory concentration (MIC), E. coli 76-2, 37° C.): 6.2 µg/mL; MIC ([15]; Enterococcus faecalis, 10541, 24 h): 50 µg/mL; MIC ([16]; 24 h): > 100 µg/mL; MIC ([17]; TYPHIMURIUM, 24 h): 1.56 µg/mL; MIC ([18]; Proteus mirabilis, 24 h): 6.2 µg/mL; MIC ([19]; Klebsiella pneumoniae, 10031, 24 h, read-out: Minimum inhibitory concentration (MIC), Kleb. pneumoniae 10031, 37° C.): 3.1 µg/mL; MIC ([20]; 24 h, read-out: Minimum inhibitory concentration (MIC), Psuedo. aeruginosa 27853, 37° C.): 12.5 µg/mL; MIC ([21]; KY8516, 24 h, read-out: Minimum inhibitory concentration (MIC), Pseudo. aeruginosa KY 8516, 37° C.): 50 µg/mL; ED50 ([22]; Escherichia coli): 4.6 mg/kg; ED50 ([23]; Klebsiella pneumoniae): 2.5 mg/kg

For COC1C(O)C(N)C(OC2OC(C(C)N)CCC2N)C(O)C1N(C)C(=O)CN (stereo not drawn) [Fortimicin A tetrahydrochloride], which “Minimum inhibitory concentration (MIC)” value [2, 24] is on record?
Its value is 3.1 µg/mL.

And the “Minimum inhibitory concentration (MIC)” value [3, 25]?
Its value is 6.2 µg/mL.

And the “Minimum inhibitory concentration (MIC)” value [4, 26]?
The value was 25 µg/mL.

And the “Minimum inhibitory concentration (MIC)” value [5, 27]?
Its value is 0.78 µg/mL.

And the “Minimum inhibitory concentration (MIC)” value ([6]; Enterobacter aerogenes 13048, Mueller-Hinton agar, 37° C., 24 hours)?
Its value is 3.1 µg/mL.

What about the “Minimum inhibitory concentration (MIC)” value [7, 28] of the same compound?
Its value is 6.2 µg/mL.

And the “Minimum inhibitory concentration (MIC)” value ([8]; Serratis marcescens 4003, 37° C., 24 hours)?
The value was 3.1 µg/mL.

What about the “Minimum inhibitory concentration (MIC)” value ([9]; Kleb. pneumoniae KY 4262, 37° C., 24 hours) of the same compound?
The value was 3.1 µg/mL.

What about the “Minimum inhibitory concentration (MIC)” value [10] of the same compound?
Its value is 12.5 µg/mL.

And the “Minimum inhibitory concentration (MIC)” value ([11]; Proteus rettigeri U6333, 37° C., 24 hours)?
The value was 25 µg/mL.

What about the “Minimum inhibitory concentration (MIC)” value [12, 29] of the same compound?
Its value is 0.78 µg/mL.

What about the “Minimum inhibitory concentration (MIC)” value ([13]; Pseudo. aeruginosa KY 8512, 37° C., 24 hours) of the same compound?
Its value is 25 µg/mL.

What about the “Minimum inhibitory concentration (MIC)” value ([14]; E. coli 76-2, 37° C., 24 hours) of the same compound?
Its value is 3.1 µg/mL.

What about the “Minimum inhibitory concentration (MIC)” value ([15]; Strep. faecalis 10541, Mueller-Hinton agar, 37° C., 24 hours) of the same compound?
The value was 50 µg/mL.

And the “Minimum inhibitory concentration (MIC)” value [16, 30]?
Its value is > 100 µg/mL.

What about the “Minimum inhibitory concentration (MIC)” value [17, 31] of the same compound?
Its value is 1.56 µg/mL.

And the “Minimum inhibitory concentration (MIC)” value [18, 32]?
The value was 6.2 µg/mL.

And the “Minimum inhibitory concentration (MIC)” value ([19]; Kleb. pneumoniae 10031, 37° C., 24 hours)?
Its value is 1.56 µg/mL.

What about the “Minimum inhibitory concentration (MIC)” value ([20]; Psuedo. aeruginosa 27853, 37° C., 24 hours) of the same compound?
Its value is 25 µg/mL.

What about the “Minimum inhibitory concentration (MIC)” value ([21]; Pseudo. aeruginosa KY 8516, 37° C., 24 hours) of the same compound?
The value was 100 µg/mL.
